Values belong to the molecule of their own block, whether it stands above or below them.
Assays:
[1] = system: dsBcl3 G6/8A (DNA, duplex) CAGGAAACCCCTGGGGCGTACGGGTGGCCCCGGGGGGGCCGGAGGCGGAGAGGCGGGCGGCCGGCACCGCCCCGGCCGACAAAAGTCCCT/AGGGACTTTTGTCGGCCGGGGCGGTGCCGGCCGCCCGCCTCTCCGCCTCCGGCCCCCCCGGGGCCACCCGTACGCCCCAGGGGTTTCCTG; test: NMM fluorescence turn-on (610 nm); conditions: 1 mM K+ (KCl); 10% PEG8000; also 100 mM KCl without PEG; 25 °C; 1 μM NMM, 2 μM DNA; no peak
[2] = system: dsBcl3 GI/IVA (DNA, duplex) CAGGAAACCCCTGGGGCGTACGGGTGGCCCCGGAAAGGCCGGGGGCGGGGAGGCAAACGGCCGGCACCGCCCCGGCCGACAAAAGTCCCT/AGGGACTTTTGTCGGCCGGGGCGGTGCCGGCCGTTTGCCTCCCCGCCCCCGGCCTTTCCGGGGCCACCCGTACGCCCCAGGGGTTTCCTG; test: NMM fluorescence turn-on (610 nm); conditions: 1 mM K+ (KCl); 10% PEG8000; also 100 mM KCl without PEG; 25 °C; 1 μM NMM, 2 μM DNA; no peak
[3] = system: dsBcl3 WT (90-bp dsBcl3-G4) (DNA, G4) CAGGAAACCCCTGGGGCGTACGGGTGGCCCCGGGGGGGCCGGGGGCGGGGAGGCGGGCGGCCGGCACCGCCCCGGCCGACAAAAGTCCCT/AGGGACTTTTGTCGGCCGGGGCGGTGCCGGCCGCCCGCCTCCCCGCCCCCGGCCCCCCCGGGGCCACCCGTACGCCCCAGGGGTTTCCTG; test: NMM fluorescence turn-on (610 nm); conditions: 1 mM K+ (KCl); 10% PEG8000; also 100 mM KCl without PEG; 25 °C; 1 μM NMM, 2 μM DNA
[4] = system: Bcl3 GI/IVA (DNA, G4) CGGAAAGGCCGGGGGCGGGGAGGCAAACGG; test: CD melting at 284 nm; conditions: 100 mM K+ (KCl); 10 mM Tris-HCl pH 7.5; 20 μM ligand, ligand:G4 2:1; stabilised
[5] = system: Bcl3 G6A (DNA, G4) CGGGGGGGCCGGAGGCGGGGAGGCGGGCGG; test: CD melting at 284 nm; conditions: 100 mM K+ (KCl); 10 mM Tris-HCl pH 7.5; 20 μM ligand, ligand:G4 2:1; stabilised
[6] = system: Bcl3 G6/8A (DNA, G4) CGGGGGGGCCGGAGGCGGAGAGGCGGGCGG; test: CD melting at 284 nm; conditions: 100 mM K+ (KCl); 10 mM Tris-HCl pH 7.5; 20 μM ligand, ligand:G4 2:1; stabilised
[7] = system: Bcl3 promoter WT (30-nt, G-rich positive strand) (DNA, G4) CGGGGGGGCCGGGGGCGGGGAGGCGGGCGG; test: ThT fluorescence turn-on (490 nm); conditions: 100 mM K+ (KCl); 10 mM Tris-HCl pH 7.5, 25 °C; 0.5 μM ThT, 1 μM DNA
[8] = system: Bcl3 GI/IVA (DNA, G4) CGGAAAGGCCGGGGGCGGGGAGGCAAACGG; test: CD melting at 264 nm; conditions: 100 mM K+ (KCl); 10 mM Tris-HCl pH 7.5; 20 μM ligand, ligand:G4 2:1; stabilised
[9] = system: Bcl3 G6A (DNA, G4) CGGGGGGGCCGGAGGCGGGGAGGCGGGCGG; test: CD melting at 264 nm; conditions: 100 mM K+ (KCl); 10 mM Tris-HCl pH 7.5; 20 μM ligand, ligand:G4 2:1; stabilised
[10] = system: Bcl3 G6/8A (DNA, G4) CGGGGGGGCCGGAGGCGGAGAGGCGGGCGG; test: CD melting at 264 nm; conditions: 100 mM K+ (KCl); 10 mM Tris-HCl pH 7.5; 20 μM ligand, ligand:G4 2:1; stabilised
[11] = biological target: T1, SP1 (UniProt P08047 1-785); test: EMSA; annealed in 100 mM KCl; Hill 4.42; EMSA: 10 mM HEPES-NaOH pH 7.3, 50 mM KCl, 5 mM MgCl2, 0.5 mM DTT, 5% glycerol, 0.5 mg/mL BSA, 1 h, gel at 4 C; BLI: PBS, room temperature; oligos annealed in 10 mM Tris-HCl pH 7.5 +/- 100 mM KCl; conditions: protein: commercial; label: 5' biotin (BLI); G4, parallel, intra- and intermolecular
T1 sequence (P08047 whole entry): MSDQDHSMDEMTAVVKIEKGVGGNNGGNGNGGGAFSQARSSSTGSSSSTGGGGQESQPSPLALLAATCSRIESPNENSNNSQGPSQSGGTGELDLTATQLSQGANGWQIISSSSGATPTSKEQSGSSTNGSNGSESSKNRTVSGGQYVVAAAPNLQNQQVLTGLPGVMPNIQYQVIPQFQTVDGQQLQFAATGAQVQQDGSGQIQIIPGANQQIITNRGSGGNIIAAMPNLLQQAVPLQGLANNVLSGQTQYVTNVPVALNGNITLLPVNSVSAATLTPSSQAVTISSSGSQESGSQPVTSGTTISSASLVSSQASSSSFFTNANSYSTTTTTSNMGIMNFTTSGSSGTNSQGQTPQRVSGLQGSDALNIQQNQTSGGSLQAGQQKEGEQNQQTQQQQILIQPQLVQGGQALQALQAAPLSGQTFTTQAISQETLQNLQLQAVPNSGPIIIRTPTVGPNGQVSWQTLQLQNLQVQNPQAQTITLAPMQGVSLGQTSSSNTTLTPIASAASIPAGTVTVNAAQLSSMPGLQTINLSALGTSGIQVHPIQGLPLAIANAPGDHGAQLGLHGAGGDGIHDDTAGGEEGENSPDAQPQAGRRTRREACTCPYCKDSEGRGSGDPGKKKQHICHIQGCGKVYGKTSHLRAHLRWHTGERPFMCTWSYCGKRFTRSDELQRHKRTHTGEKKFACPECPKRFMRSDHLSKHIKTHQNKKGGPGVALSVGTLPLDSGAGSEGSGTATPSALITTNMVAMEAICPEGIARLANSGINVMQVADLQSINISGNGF

[12] = biological target: T1, SP1; test: BLI; annealed in 100 mM KCl; local 1:1 fit at 457 nM SP1; not truly 1:1; EMSA: 10 mM HEPES-NaOH pH 7.3, 50 mM KCl, 5 mM MgCl2, 0.5 mM DTT, 5% glycerol, 0.5 mg/mL BSA, 1 h, gel at 4 C; BLI: PBS, room temperature; oligos annealed in 10 mM Tris-HCl pH 7.5 +/- 100 mM KCl; conditions: protein: commercial; label: 5' biotin (BLI); G4, parallel, intra- and intermolecular
[13] = biological target: T1, SP1; test: EMSA; annealed with KCl; Kd only in Fig S13B; EMSA: 10 mM HEPES-NaOH pH 7.3, 50 mM KCl, 5 mM MgCl2, 0.5 mM DTT, 5% glycerol, 0.5 mg/mL BSA, 1 h, gel at 4 C; BLI: PBS, room temperature; oligos annealed in 10 mM Tris-HCl pH 7.5 +/- 100 mM KCl; conditions: protein: commercial; G4
[14] = biological target: T1, SP1; test: EMSA; annealed without KCl; EMSA: 10 mM HEPES-NaOH pH 7.3, 50 mM KCl, 5 mM MgCl2, 0.5 mM DTT, 5% glycerol, 0.5 mg/mL BSA, 1 h, gel at 4 C; BLI: PBS, room temperature; oligos annealed in 10 mM Tris-HCl pH 7.5 +/- 100 mM KCl; conditions: protein: commercial; single strand
[15] = biological target: T1, SP1; test: EMSA; annealed in KCl, purified Inter 1; Hill 3.53; EMSA: 10 mM HEPES-NaOH pH 7.3, 50 mM KCl, 5 mM MgCl2, 0.5 mM DTT, 5% glycerol, 0.5 mg/mL BSA, 1 h, gel at 4 C; BLI: PBS, room temperature; oligos annealed in 10 mM Tris-HCl pH 7.5 +/- 100 mM KCl; conditions: protein: commercial

- binding [1]: no
- binding [2]: no
- binding [3]: yes
Molecule: CCc1c(C)c2cc3nc(cc4nc(cc5c(CC)c(C)c(cc1[nH]2)n5C)C(C)=C4CCC(=O)O)C(CCC(=O)O)=C3C

- binding [4]: yes
- binding [5]: yes
- binding [6]: yes
Molecule: C[n+]1ccc(-c2c3nc(c(-c4cc[n+](C)cc4)c4ccc([nH]4)c(-c4cc[n+](C)cc4)c4nc(c(-c5cc[n+](C)cc5)c5ccc2[nH]5)C=C4)C=C3)cc1

- binding [7]: yes
Molecule: Cc1ccc2c(c1)sc(-c1ccc(N(C)C)cc1)[n+]2C

- binding [8]: yes
- binding [9]: yes
- binding [10]: yes
Molecule: NCCOc1cc(C(=O)Nc2cc(OCCN)c3ccccc3n2)nc(C(=O)Nc2cc(OCCN)c3ccccc3n2)c1

Second part, the molecule before the results:

Molecule: GGGGGCCGGGGGCGGGGAGGCGGG (structured_DNA) [Bcl3 WT 24-nt, annealed with KCl (G4)]
- Kd [11]: 19.1 nM
- Kd [12]: 2.36 nM

Molecule: GGGUCCGGGCCGGGUGGG (structured_RNA) [G4 RNA (KCl)]
- binding result [13]: binds

Molecule: GGGUCCGGGCCGGGUGGG (ssRNA) [G4 RNA annealed without KCl]
- binding result [14]: binds

Molecule: AGAGACCGGGGGCGGGGAGACGAG (structured_DNA) [PCNG4 Inter 1, annealed with KCl]
- Kd [15]: 24.5 nM

Source: paper PMC12397910
